The results in this text go back to ChEMBL document CHEMBL1134754, “Influence of the terminal amide fragment geometry in some 3-arylideneindolin-2(1H)-ones on their 5-HT1A/5-HT2A receptor activity” (Bioorg Med Chem Lett, 2001).

The target of test [1] is 5-hydroxytryptamine receptor 2A (Rattus norvegicus, UniProt P14842). Briefly: Displacement of [3H]- Ketanserin from rat cortex 5-hydroxytryptamine 2A receptor.
The test system of the next test is Mus musculus. As to the kind of experiment: In vivo effective dose required for inhibiting (+/-)-DOI-induced (2.5 mg/kg, ip) twitches in mice. The class given is functional.
In test [2] the test system is Rattus norvegicus. As to the kind of experiment: Tested for induction of lower lip retraction(LLR) in rats at 20 mg/kg, ip, given 15 min before the test. In kind it is functional.
For test [3], the system named is Rattus norvegicus. As to the kind of experiment: Dose dependendt inhibition of 8-OH-DPAT(1 mg/kg, sc) induced lower lip retraction(LLR) in rats pre-administered 20 mg/kg ip dose. In kind it is functional. Conditions: route intraperitoneal.
Test [4] concerns Rattus norvegicus. Briefly: Tested for induction of lower lip retraction(LLR) in rats at 10 mg/kg, ip, given 15 min before the test. In kind it is functional.
In test [5] the target is T1, 5-hydroxytryptamine receptor 1A (Rattus norvegicus, UniProt P19327).
T1 sequence (P19327 whole entry): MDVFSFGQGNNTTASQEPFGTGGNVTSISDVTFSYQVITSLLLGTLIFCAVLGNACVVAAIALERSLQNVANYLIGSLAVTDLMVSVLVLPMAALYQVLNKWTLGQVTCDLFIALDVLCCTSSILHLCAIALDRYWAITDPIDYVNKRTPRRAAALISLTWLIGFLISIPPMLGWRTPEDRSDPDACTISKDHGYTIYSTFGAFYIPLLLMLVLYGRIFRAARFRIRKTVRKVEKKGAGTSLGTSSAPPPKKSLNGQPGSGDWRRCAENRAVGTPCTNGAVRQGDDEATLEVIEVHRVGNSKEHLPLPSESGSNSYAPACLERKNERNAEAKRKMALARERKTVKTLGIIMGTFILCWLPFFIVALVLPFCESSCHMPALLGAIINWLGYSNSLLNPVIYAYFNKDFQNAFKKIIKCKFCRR
Briefly: Displacement of [3H]8-OH-DPAT from 5-hydroxytryptamine 1A receptor of rat hippocampus. The class given is tissue-based.

Test [6] relates to Rattus norvegicus. Briefly: Dose dependendt inhibition of 8-OH-DPAT(1 mg/kg, sc) induced lower lip retraction(LLR) in rats pre-administered 10 mg/kg ip dose. In kind it is functional. Particulars: route intraperitoneal.
Test [7] concerns Rattus norvegicus. As to the kind of experiment: Tested for induction of lower lip retraction(LLR) in rats at 20 mg/kg. The class given is functional.

Where only a bound is given, the exact number is not on record here.

Chain of 5-hydroxytryptamine receptor 2A (P14842 whole entry): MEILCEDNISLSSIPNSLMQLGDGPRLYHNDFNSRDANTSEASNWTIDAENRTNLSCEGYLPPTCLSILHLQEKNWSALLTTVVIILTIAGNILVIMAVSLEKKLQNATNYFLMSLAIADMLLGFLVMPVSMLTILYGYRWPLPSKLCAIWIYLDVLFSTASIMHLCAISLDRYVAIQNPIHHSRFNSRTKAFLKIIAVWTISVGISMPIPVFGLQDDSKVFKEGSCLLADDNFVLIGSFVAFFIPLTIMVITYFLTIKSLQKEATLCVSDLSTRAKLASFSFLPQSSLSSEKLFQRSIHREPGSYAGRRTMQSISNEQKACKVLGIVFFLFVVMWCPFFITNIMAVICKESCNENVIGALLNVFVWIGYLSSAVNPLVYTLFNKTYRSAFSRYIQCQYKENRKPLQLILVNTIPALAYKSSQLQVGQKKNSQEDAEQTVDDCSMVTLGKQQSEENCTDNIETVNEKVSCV

Take `O=C1/C(=C\c2cccnc2)c2ccccc2N1CCCN1CCN(c2cccc(Cl)c2)CC1`: the inhibition constant (Ki) was found to be 20 nM in test [1] and 57 nM in test [5]. This compound gave a 50% effective dose (ED50) in the test on Mus musculus of 27 mg/kg. The Induction with Rattus norvegicus [2] and in the test with Rattus norvegicus [4] was 0.1 in each case. The Incidence_count in the test with Rattus norvegicus [3] is recorded as 0.9; in the test on Rattus norvegicus [6] it was 2.3.
In test [1], `COc1ccc(/C=C2\C(=O)N(CCCN3CCN(c4cccc(Cl)c4)CC3)c3ccccc32)cc1` came in with an inhibitory constant (Ki) of 36 nM. Further, the 50% effective dose (ED50) in the test on Mus musculus amounted to 16 mg/kg.
As to `O=C1/C(=C\c2ccc(Cl)cc2)c2ccccc2N1CCCN1CCN(c2cccc(Cl)c2)CC1`, the Ki in test [1] came out at 366 nM; in test [5], 204 nM. The same compound registered an ED50 in the test on Mus musculus of 15 mg/kg.
In turn, `O=C(c1ccc(F)cc1)C1CCN(CCn2c(=O)[nH]c3ccccc3c2=O)CC1` [KETANSERIN] came in with a median effective dose (ED50) in the test on Mus musculus of 0.12 mg/kg. Further, the inhibition constant Ki in test [5] is 1930 nM.
Turning to `O=C1/C(=C/c2ccc(Cl)cc2)c2ccccc2N1CCCN1CCN(c2cccc(Cl)c2)CC1`, the values for the Ki in test [1] and in test [5] were 32 nM and 1610 nM, respectively. Further, it took a dose of 20 mg/kg to reach the 50% effect level in the test on Mus musculus (ED50).
As for `O=C1/C(=C\c2cccs2)c2ccccc2N1CCCN1CCN(c2cccc(Cl)c2)CC1`, the Ki turned out to be 138 nM in test [1] and 20500 nM in test [5].
For `O=C1Cc2ccccc2N1CCCN1CCN(c2cccc(Cl)c2)CC1`, the Ki in test [1] came to 25 nM; in test [5], 29 nM. Moreover, in the test with Mus musculus, the 50% effective dose (ED50) came to 6.5 mg/kg.
For `COc1ccc(/C=C2/C(=O)N(CCCN3CCN(c4cccc(Cl)c4)CC3)c3ccccc32)cc1` the same measures were 20 nM, 538 nM and 28.5 mg/kg.
Turning to `O=C1/C(=C\c2ccccc2)c2ccccc2N1CCCN1CCN(c2cccc(Cl)c2)CC1`, the results for the inhibition constant Ki in test [1] and in test [5] were 56 nM and 54 nM, respectively. This compound also had a median effective dose (ED50) in the test on Mus musculus of 27.5 mg/kg. In addition, the Incidence_count came to 0.8 in the test with Rattus norvegicus [3] and 1.9 in the test with Rattus norvegicus [6]. Besides, the Induction in the test with Rattus norvegicus [4] stood at 0.1; with Rattus norvegicus [7], 0.2.
As for `O=C1/C(=C/c2cccs2)c2ccccc2N1CCCN1CCN(c2cccc(Cl)c2)CC1`, the results for the Ki in test [1] and in test [5] were 64 nM and over 50000 nM, respectively. The 50% effect level in the test on Mus musculus (ED50) was put at a dose of 16 mg/kg.
For `O=C1/C(=C/c2ccccc2)c2ccccc2N1CCCN1CCN(c2cccc(Cl)c2)CC1` the same measures were 38 nM, 399 nM and 28.5 mg/kg.
For `O=C1/C(=C/c2cccnc2)c2ccccc2N1CCCN1CCN(c2cccc(Cl)c2)CC1` the same measures were 7 nM, 101 nM and 9.5 mg/kg.

For orientation: Ki means the dissociation constant of the complex between target and ligand, obtained from inhibition or displacement. A high value points to weaker binding. A word on the ED50: it is the dose that gives a 50% effect, or the effect in half of the subjects. A high value points to a need for a large dose.
